# Measured values from patent US20250163104A1, “MACROCYCLIC IMMUNOMODULATORS” (priority 2021, published 2025).
# *1 amine or outer side, *2 acyl side, *3 side chain or, on linkers, in order; H or OH if unused. Where a SMILES comes first, the peptide text is derived from it. Bridges are numbered along the chain shown (N, C = ends). [ ]: non-standard residue; d: D form. The star is where a group is joined. ξ: configuration not given here. Phe(4-COOH) = N[C@@H](Cc1ccc(C(=O)O)cc1)C(=O)O; Bip = N[C@@H](Cc1ccc(-c2ccccc2)cc1)C(=O)O; Phe(4-CN) = N#Cc1ccc(C[C@H](N)C(=O)O)cc1; Phe(3-Me) = Cc1cccc(C[C@H](N)C(=O)O)c1; Phe(4-F) = N[C@@H](Cc1ccc(F)cc1)C(=O)O; Phe(4-Me) = Cc1ccc(C[C@H](N)C(=O)O)cc1; γGlu = O=C(O)[C@H](CCC(=O)[*:2])N[*:1]; Val(3-OH) = CC(C)(O)[C@H](N)C(=O)O; 4Pal = N[C@@H](Cc1ccncc1)C(=O)O; Cha = N[C@@H](CC1CCCCC1)C(=O)O; Ile(3ξ) = CCC(C)[C@H](N)C(=O)O; Thr(3ξ) = CC(O)[C@H](N)C(=O)O; dDab = NCC[C@@H](N)C(=O)O; Carboxymethyl = O=C(O)C*; Orn = NCCC[C@H](N)C(=O)O; Pra = C#CC[C@H](N)C(=O)O; Dab = NCC[C@H](N)C(=O)O
# Target: T1, human PD-1 / PD-L1-Ig binding on Jurkat cell line over-expressing human PD-1 (Jurkat-PD-1) (Homo sapiens, UniProt Q15116)
# T1 construct: expressed in transfected cells; host or cells: Jurkat
# Assay: Jurkat-PD-1 Cell Binding High-Content Screening Assay (CBA)
# Format: cell-based
# Details: Jurkat-PD-1 cells, PE-labeled PD-L1-Ig 20 nM final; read-out: Jurkat HPD1_PDL1 IC50
# Summary of the method: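 Cell-bound PE-labeled PD-L1-Ig (20 nM final, 1 h) measured by high-content imaging after fixation and Hoechst 33342 counterstain. Compound was applied first for 2 h at 37° C. to Jurkat cells over-expressing human PD-1 in DMEM with 10% FCS.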
# T1 sequence (Q15116 25-288): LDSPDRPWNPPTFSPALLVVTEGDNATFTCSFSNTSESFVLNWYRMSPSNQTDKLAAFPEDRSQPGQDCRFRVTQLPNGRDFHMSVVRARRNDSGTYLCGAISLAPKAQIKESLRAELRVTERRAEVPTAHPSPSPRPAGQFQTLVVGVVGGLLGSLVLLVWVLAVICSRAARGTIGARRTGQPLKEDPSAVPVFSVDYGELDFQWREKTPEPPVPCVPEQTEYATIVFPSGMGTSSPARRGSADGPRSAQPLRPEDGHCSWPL
row,IC50,SMILES
1,3.4 nM,Cc1cccc(C[C@@H]2NC(=O)[C@H](CC(=O)O)NC(=O)[C@H](Cc3ccc(C(=O)O)cc3)NC(=O)[C@H](C(C)O)NC(=O)CSC[C@@H](C(=O)N[C@@H](CCN)C(N)=O)NC(=O)[C@H](CO)NC(=O)[C@H](C(C)(C)O)NC(=O)[C@H](CC3CCCCC3)NC(=O)[C@H](CCN)NC(=O)[C@@H](CC(C)C)NC(=O)[C@H](CCCN)NC(=O)[C@H](Cc3ccc(C(=O)O)cc3)NC(=O)[C@H](Cc3ccc(-c4ccccc4)cc3)NC(=O)[C@H](Cc3ccc(C(=O)O)cc3)NC2=O)c1 (stereo partly drawn) [Compound 2665] ({CH2CO}-[Thr(3ξ)][Phe(4-COOH)]D[Phe(3-Me)][Phe(4-COOH)][Bip][Phe(4-COOH)][Orn][dL][Dab][Cha][Val(3-OH)]SC[Dab]-NH2; thioether N-14)
2,101 nM,CCC(C)[C@@H]1NC(=O)[C@H](Cc2ccc(-c3ccccc3)cc2)NC(=O)[C@H](Cc2ccc(C(=O)O)cc2)NC(=O)[C@H](Cc2cccc(C)c2)NC(=O)[C@H](CC(=O)O)NC(=O)[C@H](Cc2ccc(C(=O)O)cc2)NC(=O)[C@H](Cc2ccncc2)NC(=O)CSC[C@@H](C(=O)N[C@H](C)C(N)=O)NC(=O)[C@H](CCC(=O)O)NC(=O)[C@H](C(C)(C)O)NC(=O)[C@H](CC2CCCCC2)NC(=O)[C@H](CCN)NC(=O)[C@@H](CC(C)C)NC(=O)[C@H](Cc2cnc[nH]2)NC1=O (stereo partly drawn) [Compound 2666] ({CH2CO}-[4Pal][Phe(4-COOH)]D[Phe(3-Me)][Phe(4-COOH)][Bip][Ile(3ξ)]H[dL][Dab][Cha][Val(3-OH)]EC[dA]-NH2; thioether N-14)
3,11.4 nM,Cc1ccc(C[C@@H]2NC(=O)[C@H](C(C)O)NC(=O)CSC[C@@H](C(=O)N[C@@H](CCN)C(N)=O)NC(=O)[C@H](CO)NC(=O)[C@H](C(C)(C)O)NC(=O)[C@H](CC3CCCCC3)NC(=O)[C@H](CCN)NC(=O)[C@@H](CC(C)C)NC(=O)[C@H](CCCN)NC(=O)[C@H](Cc3ccc(OCC(=O)O)cc3)NC(=O)[C@H](Cc3ccc(-c4ccccc4)cc3)NC(=O)[C@H](Cc3ccc(OCC(=O)O)cc3)NC(=O)[C@H](Cc3cccc(C)c3)NC(=O)[C@H](CC(=O)O)NC2=O)cc1 (stereo partly drawn) [Compound 2667] ({CH2CO}-[Thr(3ξ)][Phe(4-Me)]D[Phe(3-Me)]Y(Carboxymethyl)[Bip]Y(Carboxymethyl)[Orn][dL][Dab][Cha][Val(3-OH)]SC[Dab]-NH2; thioether N-14)
4,9.2 nM,Cc1ccc(C[C@@H]2NC(=O)[C@H](C(C)O)NC(=O)CSC[C@@H](C(=O)N[C@@H](CCN)C(N)=O)NC(=O)[C@H](Cc3c[nH]cn3)NC(=O)[C@H](C(C)(C)O)NC(=O)[C@H](CC3CCCCC3)NC(=O)[C@H](CCN)NC(=O)[C@@H](CC(C)C)NC(=O)[C@H](CCCN)NC(=O)[C@H](Cc3ccc(OCC(=O)O)cc3)NC(=O)[C@H](Cc3ccc(-c4ccccc4)cc3)NC(=O)[C@H](Cc3ccc(OCC(=O)O)cc3)NC(=O)[C@H](Cc3cccc(C)c3)NC(=O)[C@H](CC(=O)O)NC2=O)cc1 (stereo partly drawn) [Compound 2671] ({CH2CO}-[Thr(3ξ)][Phe(4-Me)]D[Phe(3-Me)]Y(Carboxymethyl)[Bip]Y(Carboxymethyl)[Orn][dL][Dab][Cha][Val(3-OH)]HC[Dab]-NH2; thioether N-14)
5,488 nM,Cc1cccc(C[C@@H]2NC(=O)[C@H](CC(=O)O)NC(=O)[C@H](Cc3ccc(F)cc3)NC(=O)[C@H](Cc3ccncc3)NC(=O)CSC[C@@H](C(=O)N[C@@H](CCN)C(N)=O)NC(=O)[C@H](Cc3c[nH]cn3)NC(=O)[C@H](C(C)(C)O)NC(=O)[C@H](CC3CCCCC3)NC(=O)[C@H](CCN)NC(=O)[C@@H](CC(C)C)NC(=O)[C@H](CCCN)NC(=O)[C@H](Cc3ccc(OCC(=O)O)cc3)NC(=O)[C@H](Cc3ccc(-c4ccccc4)cc3)NC(=O)[C@H](Cc3ccc(OCC(=O)O)cc3)NC2=O)c1 [Compound 2672] ({CH2CO}-[4Pal][Phe(4-F)]D[Phe(3-Me)]Y(Carboxymethyl)[Bip]Y(Carboxymethyl)[Orn][dL][Dab][Cha][Val(3-OH)]HC[Dab]-NH2; thioether N-14)
6,5.8 nM,Cc1cccc(C[C@@H]2NC(=O)[C@H](CC(=O)O)NC(=O)[C@H](Cc3ccc(C#N)cc3)NC(=O)[C@H](C(C)O)NC(=O)CSC[C@@H](C(=O)N[C@@H](CCN)C(N)=O)NC(=O)[C@H](Cc3c[nH]cn3)NC(=O)[C@H](C(C)(C)O)NC(=O)[C@H](CC3CCCCC3)NC(=O)[C@H](CCN)NC(=O)[C@@H](CC(C)C)NC(=O)[C@H](CCCN)NC(=O)[C@H](Cc3ccc(OCC(=O)O)cc3)NC(=O)[C@H](Cc3ccc(-c4ccccc4)cc3)NC(=O)[C@H](Cc3ccc(OCC(=O)O)cc3)NC2=O)c1 (stereo partly drawn) [Compound 2673] ({CH2CO}-[Thr(3ξ)][Phe(4-CN)]D[Phe(3-Me)]Y(Carboxymethyl)[Bip]Y(Carboxymethyl)[Orn][dL][Dab][Cha][Val(3-OH)]HC[Dab]-NH2; thioether N-14)
7,6.2 nM,COc1ccc(C[C@@H]2NC(=O)[C@H](C(C)O)NC(=O)CSC[C@@H](C(=O)N[C@@H](CCN)C(N)=O)NC(=O)[C@H](Cc3c[nH]cn3)NC(=O)[C@H](C(C)(C)O)NC(=O)[C@H](CC3CCCCC3)NC(=O)[C@H](CCN)NC(=O)[C@@H](CC(C)C)NC(=O)[C@H](CCCN)NC(=O)[C@H](Cc3ccc(OCC(=O)O)cc3)NC(=O)[C@H](Cc3ccc(-c4ccccc4)cc3)NC(=O)[C@H](Cc3ccc(OCC(=O)O)cc3)NC(=O)[C@H](Cc3cccc(C)c3)NC(=O)[C@H](CC(=O)O)NC2=O)cc1 (stereo partly drawn) [Compound 2674] ({CH2CO}-[Thr(3ξ)]Y(Me)D[Phe(3-Me)]Y(Carboxymethyl)[Bip]Y(Carboxymethyl)[Orn][dL][Dab][Cha][Val(3-OH)]HC[Dab]-NH2; thioether N-14)
8,795 nM,Cc1cccc(C[C@@H]2NC(=O)[C@H](CC(=O)O)NC(=O)[C@H](Cc3ccc(C#N)cc3)NC(=O)[C@H](Cc3ccncc3)NC(=O)CSC[C@@H](C(=O)N[C@@H](CCN)C(N)=O)NC(=O)[C@H](Cc3c[nH]cn3)NC(=O)[C@H](C(C)(C)O)NC(=O)[C@H](CC3CCCCC3)NC(=O)[C@H](CCN)NC(=O)[C@@H](CC(C)C)NC(=O)[C@H](CCCN)NC(=O)[C@H](Cc3ccc(OCC(=O)O)cc3)NC(=O)[C@H](Cc3ccc(-c4ccccc4)cc3)NC(=O)[C@H](Cc3ccc(OCC(=O)O)cc3)NC2=O)c1 [Compound 2675] ({CH2CO}-[4Pal][Phe(4-CN)]D[Phe(3-Me)]Y(Carboxymethyl)[Bip]Y(Carboxymethyl)[Orn][dL][Dab][Cha][Val(3-OH)]HC[Dab]-NH2; thioether N-14)
9,8.5 nM,Cc1cccc(C[C@@H]2NC(=O)[C@H](CC(=O)O)NC(=O)[C@H](Cc3ccc(OCC(=O)O)cc3)NC(=O)[C@H](Cc3ccc(F)cc3)NC(=O)CSC[C@@H](C(=O)N[C@H](CCN)C(N)=O)NC(=O)[C@H](CCC(=O)O)NC(=O)[C@H](C(C)(C)O)NC(=O)[C@H](CC3CCCCC3)NC(=O)[C@H](CCN)NC(=O)[C@@H](CC(C)C)NC(=O)[C@H](CCCN)NC(=O)[C@H](Cc3ccc(OCC(=O)O)cc3)NC(=O)[C@H](Cc3ccc(-c4ccccc4)cc3)NC(=O)[C@H](Cc3ccc(OCC(=O)O)cc3)NC2=O)c1 [Compound 2676] ({CH2CO}-[Phe(4-F)]Y(Carboxymethyl)D[Phe(3-Me)]Y(Carboxymethyl)[Bip]Y(Carboxymethyl)[Orn][dL][Dab][Cha][Val(3-OH)]EC[dDab]-NH2; thioether N-14)
10,6 nM,Cc1cccc(C[C@@H]2NC(=O)[C@H](CC(=O)O)NC(=O)[C@H](Cc3ccc(OCC(=O)O)cc3)NC(=O)[C@H](Cc3ccncc3)NC(=O)CSC[C@@H](C(=O)N[C@@H](CCN)C(N)=O)NC(=O)[C@H](CCC(=O)O)NC(=O)[C@H](C(C)(C)O)NC(=O)[C@H](CC3CCCCC3)NC(=O)[C@H](CCN)NC(=O)[C@@H](CC(C)C)NC(=O)[C@H](CCCN)NC(=O)[C@H](Cc3ccc(C(=O)O)cc3)NC(=O)[C@H](Cc3ccc(-c4ccccc4)cc3)NC(=O)[C@H](Cc3ccc(C(=O)O)cc3)NC2=O)c1 [Compound 2677] ({CH2CO}-[4Pal]Y(Carboxymethyl)D[Phe(3-Me)][Phe(4-COOH)][Bip][Phe(4-COOH)][Orn][dL][Dab][Cha][Val(3-OH)]EC[Dab]-NH2; thioether N-14)
11,12.2 nM,C#CC[C@H](NC(=O)CC[C@H](NC(=O)[C@H](CCN)NC(=O)[C@@H]1CSCC(=O)N[C@@H](CCN)C(=O)N[C@@H](Cc2ccc(OCC(=O)O)cc2)C(=O)N[C@@H](CC(=O)O)C(=O)N[C@@H](Cc2cccc(C)c2)C(=O)N[C@@H](Cc2ccc(C(=O)O)cc2)C(=O)N[C@@H](Cc2ccc(-c3ccccc3)cc2)C(=O)N[C@@H](Cc2ccc(C(=O)O)cc2)C(=O)N[C@@H](CCCN)C(=O)N[C@H](CC(C)C)C(=O)N[C@@H](Cc2cnc[nH]2)C(=O)N[C@@H](CC2CCCCC2)C(=O)N[C@@H](C(C)(C)O)C(=O)N[C@@H](CCC(=O)O)C(=O)N1)C(=O)O)C(N)=O [Compound 2678] ({CH2CO}-[Dab]Y(Carboxymethyl)D[Phe(3-Me)][Phe(4-COOH)][Bip][Phe(4-COOH)][Orn][dL]H[Cha][Val(3-OH)]EC[Dab][γGlu][Pra]-NH2; thioether N-14)
12,1.9 nM,Cc1cccc(C[C@@H]2NC(=O)[C@H](CC(=O)O)NC(=O)[C@H](Cc3ccc(C(=O)O)cc3)NC(=O)[C@H](C(C)O)NC(=O)CSC[C@@H](C(=O)N[C@@H](CCN)C(N)=O)NC(=O)[C@H](Cc3cnc[nH]3)NC(=O)[C@H](C(C)(C)O)NC(=O)[C@H](CC3CCCCC3)NC(=O)[C@H](CCN)NC(=O)[C@@H](CC(C)C)NC(=O)[C@H](CCCN)NC(=O)[C@H](Cc3ccc(OCC(=O)O)cc3)NC(=O)[C@H](Cc3ccc(-c4ccccc4)cc3)NC(=O)[C@H](Cc3ccc(OCC(=O)O)cc3)NC2=O)c1 (stereo partly drawn) [Compound 2683] ({CH2CO}-[Thr(3ξ)][Phe(4-COOH)]D[Phe(3-Me)]Y(Carboxymethyl)[Bip]Y(Carboxymethyl)[Orn][dL][Dab][Cha][Val(3-OH)]HC[Dab]-NH2; thioether N-14)
